Calls of active or inactive are those of the source.

Series [1] deals with T1, Cathepsin G (Homo sapiens) (UniProt P08311).
T1 sequence (whole entry): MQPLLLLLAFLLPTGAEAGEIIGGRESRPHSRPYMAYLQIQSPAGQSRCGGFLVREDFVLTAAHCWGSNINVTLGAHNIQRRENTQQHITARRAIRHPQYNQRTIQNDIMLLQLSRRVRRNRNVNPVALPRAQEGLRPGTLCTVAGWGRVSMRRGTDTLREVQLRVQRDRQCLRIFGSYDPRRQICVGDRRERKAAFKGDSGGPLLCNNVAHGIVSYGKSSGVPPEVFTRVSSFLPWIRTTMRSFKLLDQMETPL
Kind of series: Inhibition of human neutrophil Cat G at 100 uM.

Series [2] concerns the target T2, Chymase (Homo sapiens) (UniProt P23946).
T2 sequence (whole entry): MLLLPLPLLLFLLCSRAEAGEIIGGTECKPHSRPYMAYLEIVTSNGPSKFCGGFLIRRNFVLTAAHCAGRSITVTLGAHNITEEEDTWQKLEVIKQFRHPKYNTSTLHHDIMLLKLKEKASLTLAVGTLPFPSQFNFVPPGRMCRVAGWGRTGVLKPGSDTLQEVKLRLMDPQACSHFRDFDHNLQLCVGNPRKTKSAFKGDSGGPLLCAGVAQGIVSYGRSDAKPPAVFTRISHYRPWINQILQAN
Kind of series: Inhibition of human skin chymase at 10 uM.

Series [3] is described as follows: Cmax in rat. Format: ADME, organism-based. The settings on record: in vivo.
The test system of series [4] is Syrian golden hamster. Kind of series: Antiinflammatory activity against carrageenan-induced paw inflammation in golden Syrian hamster at 30 mg/kg, po. Format: functional. Conditions: Mesocricetus auratus. Background: Carrageenan injected into the paw causes an acute inflammation.
The nature of series [5]: Half life in orally dosed rat. The series is classed as ADME, organism-based. The settings on record: in vivo, po.
Series [6] is described as follows: Oral bioavailability in rat. The series is classed as ADME, organism-based. Conditions: in vivo.
Series [7] concerns Syrian golden hamster. Kind of series: Antiinflammatory activity against carrageenan-induced paw inflammation in golden Syrian hamster at 10 mg/kg, im. The series is classed as functional, organism-based. Details: dose 10 mg/kg. Conditions: Mesocricetus auratus.
Series [8] deals with T3, Cathepsin G (Homo sapiens, UniProt P08311).
T3 sequence (P08311 whole entry): T1 sequence (whole entry)
As to the kind of experiment: Inhibition of human neutrophil Cat G.

The species entered for series [9] is Homo sapiens. As to the kind of experiment: Inhibition of human chymotrypsin at 100 uM.
For series [10], the target named is Coagulation factor X (Homo sapiens) (UniProt P00742). Kind of series: Inhibition of human factor Xa at 100 uM.
Series [11] deals with T4, Coagulation factor VII (Homo sapiens) (UniProt P08709).
T4 sequence (whole entry): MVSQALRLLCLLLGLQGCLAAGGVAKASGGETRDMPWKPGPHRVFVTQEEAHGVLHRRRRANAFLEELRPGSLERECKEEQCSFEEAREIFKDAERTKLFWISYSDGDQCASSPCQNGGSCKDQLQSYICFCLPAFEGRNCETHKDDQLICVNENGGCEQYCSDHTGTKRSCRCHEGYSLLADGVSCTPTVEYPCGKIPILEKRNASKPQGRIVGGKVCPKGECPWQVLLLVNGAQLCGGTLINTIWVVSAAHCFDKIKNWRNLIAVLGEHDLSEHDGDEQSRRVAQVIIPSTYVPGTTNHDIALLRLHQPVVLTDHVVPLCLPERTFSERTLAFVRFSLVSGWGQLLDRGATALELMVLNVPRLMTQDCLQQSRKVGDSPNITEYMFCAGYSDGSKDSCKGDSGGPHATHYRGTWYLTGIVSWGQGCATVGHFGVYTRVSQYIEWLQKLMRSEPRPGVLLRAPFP
Kind of series: Inhibition of human factor VIIa at 100 uM.

The species named for series [12] is Homo sapiens. As to the kind of experiment: Inhibition of human beta-tryptase at 100 uM.
In series [13] the target is Trypsin (Homo sapiens, UniProt P07477+P07478+P35030). Kind of series: Inhibition of human trypsin. Format: protein assay.
The species named for series [14] is Homo sapiens. Kind of series: Inhibition of human alpha-thrombin at 100 uM.
Series [15] has as its target T5, Neutrophil elastase (Homo sapiens) (UniProt P08246).
T5 sequence (whole entry): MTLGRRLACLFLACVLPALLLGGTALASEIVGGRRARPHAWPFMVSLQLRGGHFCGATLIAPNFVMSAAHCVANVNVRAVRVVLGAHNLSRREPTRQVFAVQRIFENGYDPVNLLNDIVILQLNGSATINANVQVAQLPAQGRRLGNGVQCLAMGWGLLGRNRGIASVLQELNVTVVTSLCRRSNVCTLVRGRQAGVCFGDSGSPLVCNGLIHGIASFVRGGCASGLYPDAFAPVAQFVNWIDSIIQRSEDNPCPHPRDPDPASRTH
Kind of series: Inhibition of human leukocyte elastase at 100 uM.

Chain of Coagulation factor X (Homo sapiens) (P00742 41-179 limits assumed): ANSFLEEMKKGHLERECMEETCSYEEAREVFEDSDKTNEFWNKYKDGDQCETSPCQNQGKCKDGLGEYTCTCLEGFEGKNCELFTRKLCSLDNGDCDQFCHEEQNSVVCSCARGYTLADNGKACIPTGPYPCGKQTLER
Chain of Coagulation factor X (Homo sapiens) (P00742 235-488 limits assumed): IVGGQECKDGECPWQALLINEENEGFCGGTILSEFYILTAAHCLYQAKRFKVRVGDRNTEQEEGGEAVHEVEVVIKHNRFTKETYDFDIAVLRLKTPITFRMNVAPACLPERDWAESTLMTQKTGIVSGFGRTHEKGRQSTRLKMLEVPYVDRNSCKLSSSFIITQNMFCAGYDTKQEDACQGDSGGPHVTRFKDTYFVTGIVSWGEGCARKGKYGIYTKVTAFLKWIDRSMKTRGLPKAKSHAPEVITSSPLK

`O=C(Nc1ccc2ccccc2c1)C(c1cccc2ccccc12)P(=O)(O)O` (configuration not stated) showed an inhibition in series [1] of 0%.

`O=C(Nc1ccc2ccccc2c1)C(n1nnc2ccccc21)P(=O)(O)O` (configuration not stated): the inhibition in series [2] is under 50%.

`CP(=O)(O)C(C(=O)N/C=C/c1cc(F)cc(Cl)c1)c1csc2ccc(Cl)cc12` (configuration not stated) gave a Cmax in [3] of 6 µM. Besides, the inhibition in vivo at 30 mg/kg in series [4] stood at 50%. The compound further had a half-life in series [5] of 4.5 h. In series [6], this compound yielded a bioavailability of 39%.

On to `C[C@@H]1C[C@H]2[C@@H]3CCC4=CC(=O)C=C[C@]4(C)[C@@]3(F)[C@@H](O)C[C@]2(C)[C@@]1(O)C(=O)CO`, for which the result in series [7] was Active.

As for `O=C(Nc1ccc2ccccc2c1)C(c1csc2ccc(Cl)cc12)P(=O)(O)O` (configuration not stated), the affinity in series [8], expressed as Ki, was 9.5 µM. Moreover, the inhibition in series [9], in series [10], in series [11], in series [12], in series [14] and in series [15] was under 50% in each case. For the same compound, the half-life in series [5] is 1.8 h. In [13], this compound had an IC50 of 12 µM. The bioavailability in series [6] came out at 3%.

Usually inhibition stands for the percentage by which the read-out fell short of the control. Lower therefore signals a response near the control. As a reminder, the Cmax is the highest concentration seen after dosing. Usually inhibition in vivo stands for the share of the control response that was lost under treatment. Lower therefore signals a weak effect. One may read the half-life as the time needed for the level to fall by half in the phase considered. The low end stands for fast loss, the high end for slow loss. In general, bioavailability refers to the share of a dose that reaches the circulation, judged against a reference dose that is usually intravenous. The Ki is a measure of affinity in units of concentration, obtained from inhibition or displacement. Higher therefore signals a looser hold on the target. The term IC50 denotes the concentration needed to halve the response being measured. A low value points to greater potency in that assay.

Source of the values: ChEMBL document CHEMBL1142999, “Discovery of potent, selective, orally active, nonpeptide inhibitors of human mast cell chymase” (J Med Chem, 2007).
